Two molecules from US11261232B2, “TNFRSF14 / HVEM proteins and methods of use thereof” (MEMORIAL SLOAN KETTERING CANCER CENTER, priority 2015, dated 2022) can be followed below.

The test system of assay [1] is BCR signaling pathway in BCL1 mouse lymphoma cells. As to the kind of experiment: BTK phosphorylation by flow cytometry in IgM-stimulated BCL1 cells. The conditions noted are these: solHVEM 10 μg/ml. The class given is cell-based. The method, then:
(§1) FIG. 4A-E. HVEM blocks BCR signaling in a cell autonomous and BTLA dependent manner. FIG. 4A and FIG. 4B, Quantification of FACS analysis of phosphorylated BTK (pBTK) expression in BCL1 cells after stimulation with anti-IgM in the presence of solHVEM (10 μg/m1) or Ibrutinib (10 nM) without (FIG. 4A) or with (FIG. 4B) the knockdown of BTLA (shBTLA); FIG. 4C, FACS analysis of BTLA expression on purified primary human FL B cells distinguishes samples with high (BTLA^hi) and low (BTLAlo) surface BTLA expression); FIG. 4D, FACS analysis for the indicated signaling molecules in human primary FL B cells that were BTLA^hi or BTLAlo and stimulated with anti-human IgG (3 min; 10 μg/ml and H2O2 1 mM) in the presence or absence of the soluble HVEM ectodomain (solHVEM; 10 μg/ml) (right); FIG. 4E, Percentage of pSyk inhibition was calculated by comparing the ratio of MFI of pSyk+/−solHVEM and was correlated to BTLA ratio of MFI (r=0.697, p=0.03, Purified FL B cells, n=10, grade 1 and grade 2).
Loss of HVEM and BTLA leads to BCR activation in murine lymphomas (FIGS. 2G and 3F). […] Briefly, the BCR signaling pathway in BCL1 mouse lymphoma cells was stimulated with IgM in the presence or absence of solHVEM (10 μg/ml) or the pharmacological BTK inhibitor ibrutinib (10 nM) and BTK phosphorylation was measured as an indicator of BCR pathway activation by flow cytometry. […]
In general terms: In flow cytometry, cells or beads pass a laser one at a time.

Assay [2] relates to primary human FL B cells. Put plainly: BCR signaling (pSyk, pERK) in anti-IgG-stimulated primary FL B cells. The class given is cell-based. To be noted: solHVEM 10 μg/ml. The method, then: as §1
FIG. 11. Effect of HVEM on murine and human FL B cells. […]
Loss of HVEM and BTLA leads to BCR activation in murine lymphomas (FIGS. 2G and 3F). […] Briefly, the BCR signaling pathway in BCL1 mouse lymphoma cells was stimulated with IgM in the presence or absence of solHVEM (10 μg/ml) or the pharmacological BTK inhibitor ibrutinib (10 nM) and BTK phosphorylation was measured as an indicator of BCR pathway activation by flow cytometry. […] BTLA expression was analyzed across ten samples of purified human FL B cells by FACS, and the samples were divided into BTLA″ and BTLA^10 groups (FIG. 4C). […]
Purified IgGpos FL B cells were stimulated using FITC-conjugated goat anti-human IgG (Invitrogen, […]) in the presence of H2O2 (1 mM) with or without solHVEM (10 μg/mL). […] Phosphoprotein activation was quantified using Alexa 647-conjugated anti-pSyk (clone 17A/p-ZAP70), anti-pBLNK (clone j117-1278), or anti-pERK1/2 (clone 20A, BD Biosciences) and analyzed on B cells expressing clonal heavy and light chain gated using the anti-IgG FITC Ab and a PE-conjugated anti-kappa Ab (Southern Biotech).

The test system of assay [3] is myc-Bc12 lymphoma cell line. As to the kind of experiment: Cell viability by CellTiterGlo. The class given is cell-based, mouse. The conditions noted are these: 5 ug/ml; 24 hours. The protocol: FIG. 18. sTNFRSF14 decreases cell viability in vitro. Cells of the myc-Bc12 lymphoma cell line were plated at a density of 1×10^5 cells/ml and they were treated with sTNFRSF14 (5 ug/ml) or vehicle. After 24 hours of treatment cell viability was assessed using CellTiterGlo reagent.
On the technique in general: ATP-based viability assays read luminescence as a measure of living cells.

In the case of “solHVEM: Leu39-Val202 soluble HVEM ectodomain polypeptide of SEQ ID NO. 8”, the “BTK phosphorylation and activation” value in assay [1] (BCL1 cells stimulated with IgM) was “blocked BTK phosphorylation and activation”. Besides, the “BTK inhibition with knockdown of BTLA” value in assay [1] (BCL1 cells with shBTLA) is reported as “knockdown of BTLA prevented BTK inhibition”. Also, in assay [2] (BTLAhi primary FL B cells), the “ERK inhibition in BTLAhi cells” value is listed as “inhibition” and the “SYK inhibition in BTLAhi cells” value is recorded as “inhibition”. Further, the “SYK and ERK inhibition in BTLAlo cells” value in assay [2] (BTLAlo primary FL B cells) is listed as “little effect”.

B1: sTNFRSF14: Pro37-Val202 soluble HVEM ectodomain polypeptide of SEQ ID NO. 6 (protein, listed as Homo sapiens)
chain: PALPSCKEDEYPVGSECCPKCSPGYRVKEACGELTGTVCEPCPPGTYIAHLNGLSKCLQCQMCDPAMGLRASRNCSRTENAVCGCSPGHFCIVQDGDHCAACRAYATSSPGQRVQKGGTESQDTLCQNCPPGTFSPNGTLEECQHQTKCSWLVTKAGAGTSSSHWV
Turning to B1, the cell viability result in assay [3] was “modest decrease”.
